Laboratory results published in patent US11413278B2, “Compounds and methods for promoting stress resistance” (priority 2015, dated 2022).
“Also recorded” adds a separate entry of the source. Where two headings read alike, the source gives them in different places.

How the values were obtained:
in vitro = type: cell-based, human; conditions: human
[1] = test system: PC12 cells expressing poly(Q)103-Htt-EGFP; experiment: Poly(Q) toxicity & viability analysis (cellular model of Huntington's disease); type: cell-based, rat; conditions: for M = Huntington's poly-Q toxicity attenuation: score; for K = Huntington's poly-Q toxicity attenuation: summary score
Procedure, shortened: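 Readout is CellTiter-Glo ATP content measured after 48 hrs. Cells are a PC12 line stably expressing inducible poly(Q)103-Htt-EGFP, where induction produces toxic aggregates.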

human PARP1 = target: T1, human PARP1 (Homo sapiens, UniProt P09874); experiment: PARP inhibitor assay (HT Fluorescent Homogeneous PARP Inhibition Assay Kit); type: biochemical; conditions: score
T1 construct: purchased Trevigen
T1 sequence (P09874 whole entry): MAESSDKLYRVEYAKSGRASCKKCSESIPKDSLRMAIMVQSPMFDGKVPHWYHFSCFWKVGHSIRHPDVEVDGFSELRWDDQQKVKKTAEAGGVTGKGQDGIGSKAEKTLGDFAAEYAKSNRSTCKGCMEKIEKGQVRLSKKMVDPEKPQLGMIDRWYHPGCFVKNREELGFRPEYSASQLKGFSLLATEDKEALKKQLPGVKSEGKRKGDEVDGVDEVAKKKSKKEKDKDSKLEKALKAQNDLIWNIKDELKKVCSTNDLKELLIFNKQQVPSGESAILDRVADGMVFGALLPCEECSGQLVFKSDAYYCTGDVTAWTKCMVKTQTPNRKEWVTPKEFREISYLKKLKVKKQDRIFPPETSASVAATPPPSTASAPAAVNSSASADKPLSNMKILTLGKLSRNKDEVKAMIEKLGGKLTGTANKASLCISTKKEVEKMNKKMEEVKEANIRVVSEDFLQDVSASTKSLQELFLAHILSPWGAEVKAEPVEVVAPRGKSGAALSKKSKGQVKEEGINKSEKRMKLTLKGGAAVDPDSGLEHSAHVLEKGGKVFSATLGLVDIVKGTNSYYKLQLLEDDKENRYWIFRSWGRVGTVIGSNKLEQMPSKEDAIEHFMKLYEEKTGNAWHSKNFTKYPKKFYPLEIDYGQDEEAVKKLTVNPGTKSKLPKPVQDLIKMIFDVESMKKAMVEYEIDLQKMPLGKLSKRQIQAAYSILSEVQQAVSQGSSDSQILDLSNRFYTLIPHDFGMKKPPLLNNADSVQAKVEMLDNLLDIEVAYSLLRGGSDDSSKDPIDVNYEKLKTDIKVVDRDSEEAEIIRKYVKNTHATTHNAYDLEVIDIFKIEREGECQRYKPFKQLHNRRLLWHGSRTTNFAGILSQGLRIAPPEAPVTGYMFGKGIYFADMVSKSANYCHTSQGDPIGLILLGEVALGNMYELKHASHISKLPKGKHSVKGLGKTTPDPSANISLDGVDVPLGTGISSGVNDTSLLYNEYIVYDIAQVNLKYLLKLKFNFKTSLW
Procedure, shortened: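 Compounds (10 μM final) incubated 30 min, room temperature, dark, with human PARP1, nicotinamide adenine dinucleotide and activated DNA. Fluorescent signal generated by 1 hr cycling with diaphorase and resazurin, then reaction stopped.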

WI-38 cells = conditions: no H2O2 stress, 10 uM; negative control 0.41% ± 0.23%
Procedure: WI-38 cells were seeded on 384-well plates for 24 hrs and then incubated with small molecules for 24 hrs. […] Images were collected on an INCell Analyzer 2000 (GE) and analyzed with the Developer software.

[2] = test system: HTB-178 lung tumor cells (EGFR+, PIK3CA+, RB1−, TP53−); experiment: Killing effects on HTB-178 tumor cells; type: cell-based, human
FOXO3 = experiment: qPCR analysis of FOXO3-regulated genes; type: cell-based, human; conditions: for Induction of at least two of five FOXO3-regulated genes (SOD2, GADD45A, CAT, DDB1, TXNIP): WI-38; for fold induction at 10 µM: Homo sapiens; for K = Sestrin induction: score
Procedure, shortened: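 FOXO3 target-gene expression quantified by qPCR normalised to B2M, PPIA and GAPDH, in WI-38 cells after 24 h exposure to 10 μM compound. Some runs used cells first transfected 36 h with 10 nM FOXO3 or NRF2 siRNA and replated ~24 h before dosing.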

human protein targets = conditions: PubChem database queries; cited from earlier work
[3] = 24 h, Assay 10(m), at 10 uM, qPCR, read-out: Induction of FOXO3-regulated genes: CAT normalized fold-change
[4] = 24 h, Assay 10(m), at 10 uM, qPCR, read-out: Induction of FOXO3-regulated genes: DDB1 normalized fold-change
[5] = 10 μM, 24 hrs, WI-38 cells, qPCR, normalized to B2M, n = 4, read-out: CAT expression, normalized fold change (FOXO3-regulated gene)
[6] = 10 μM, 24 hrs, WI-38 cells, qPCR, normalized to B2M, n = 4, read-out: DDB1 expression, normalized fold change (FOXO3-regulated gene)
[7] = WI-38 cells, 10 μM, 24 hrs, n=4, qPCR normalized by B2M, read-out: DDB1 Normalized fold change
[8] = WI-38 cells, 10 μM, 24 hrs, n=4, qPCR normalized by B2M, read-out: GADD45A Normalized fold change
[9] = WI-38 cells, 10 μM, 24 hrs, n=4, qPCR normalized by B2M, read-out: SESN1 Normalized fold change
[10] = fold change, qPCR, WI-38 cells, 10 μM, 24 hrs, read-out: Summary of effects on FOXO3-regulated genes: CAT
[11] = fold change, qPCR, WI-38 cells, 10 μM, 24 hrs, read-out: Summary of effects on FOXO3-regulated genes: DDB1
[12] = qPCR, WI-38 cells, 10 μM, n=4, 24 hrs, normalized by B2M, read-out: CAT Normalized fold change
[13] = qPCR, WI-38 cells, 10 μM, n=4, 24 hrs, normalized by B2M, read-out: SOD2 Normalized fold change
[14] = qPCR, WI-38 cells, 10 μM, n=4, 24 hrs, normalized by B2M, read-out: TXNIP Normalized fold change
[15] = 24 h, Assay 10(m), at 10 uM, qPCR, read-out: Induction of FOXO3-regulated genes: GADD45A normalized fold-change
[16] = 10 μM, 24 hrs, WI-38 cells, qPCR, normalized to B2M, n = 4, read-out: GADD45A expression, normalized fold change (FOXO3-regulated gene)
[17] = fold change, qPCR, WI-38 cells, 10 μM, 24 hrs, read-out: Summary of effects on FOXO3-regulated genes: GADD45A

| SMILES | cytotoxicity at 24 h, 10 uM (in vitro) | M = Huntington's poly-Q toxicity attenuation [1] | K = Huntington's poly-Q toxicity attenuation [1] | L = PARP inhibition (human PARP1) | Percentage of propidium iodide-positive dead cells (no H2O2 stress treatment), at 10 uM (WI-38 cells) | Potential killing effects on HTB-178 tumor cells, 1st ([2]; Assay 1(y), at 10 uM) | Induction of at least two of five FOXO3-regulated genes (SOD2, GADD45A, CAT, DDB1, TXNIP) (FOXO3; 10 μM, 24 hrs) | E = Potential FOXO3 Activation (FOXO3; 2-point score) | fold induction at 10 µM (FOXO3; [3]) | fold induction at 10 µM (FOXO3; [4]) | fold induction at 10 µM (FOXO3; [5]) | fold induction at 10 µM (FOXO3; [7]) | fold induction at 10 µM (FOXO3; [8]) | fold induction at 10 µM (FOXO3; [9]) | fold induction at 10 µM (FOXO3; [12]) | fold induction at 10 µM (FOXO3; [13]) | fold induction at 10 µM (FOXO3; [14]) | K = Sestrin induction (FOXO3) | E = Potential FOXO3 Activation (FOXO3; summary score) | Potential targets: human protein targets (confirmed) (human protein targets) | other results |
| --- | --- | --- | --- | --- | --- | --- | --- | --- | --- | --- | --- | --- | --- | --- | --- | --- | --- | --- | --- | --- | --- |
| NS(=O)(=O)c1ccc(NC(=O)c2ccc([N+](=O)[O-])o2)cc1 [Gr-1A] | 30% | 1 | 1 | 0 | 0.79% ± 0.36%, | YES; | significant induction; also recorded: significant, induction; also recorded: induce FOXO3-regulated genes | 0 | 1.36 | 1.16 | 1.31 | 1.35 | 1.27 | 2.12 | 1.31 | 1.5 | 1.23 | 1 | 0 | – | Viability of PC12 cells upon induction of toxic poly(Q)103-Htt-EGFP aggregates ([1]; 2.5 μM, 5 μM, 10 μM and 20 μM): consistently increased the viability; Assay 20: Huntington's poly-Q toxicity attenuation ([1]; 10 uM, YES/NO): YES; fold induction at 10 µM (FOXO3; 24 h, Assay 10(m), at 10 uM, qPCR, read-out: Induction of FOXO3-regulated genes: SESN1 normalized fold-change): 1.93; fold induction at 10 µM (FOXO3; WI-38, 24 h, read-out: SESN1 expression): > 1.5; fold induction at 10 µM (FOXO3; [6]): 1.36; fold induction at 10 µM (FOXO3; 10 μM, 24 hrs, WI-38 cells, qPCR, normalized to B2M, n = 4, read-out: SESN1 expression, normalized fold change (FOXO3-regulated gene)): 2.12; fold induction at 10 µM (FOXO3; [10]): 1.31; fold induction at 10 µM (FOXO3; [11]): 1.36; fold induction at 10 µM (FOXO3; fold change, qPCR, WI-38 cells, 10 μM, 24 hrs, read-out: Summary of effects on FOXO3-regulated genes: SESN1): 2.12 |
| Cc1ccc(S(=O)(=O)Nc2cccc3cccnc23)cc1 [Gr-3B] | – | 0 | 0 | 0 | 0.47% ± 0.20%, | YES; | – | 0 | – | – | – | 1.12 | 1.16 | 1.07 | 1.11 | 1.14 | 1.06 | 0 | 0 | ADRB2, AGTR1, APLNR, ARNT, BARD1, BRCA1, CCR6, CFTR, CHRM4,; also recorded: CXCR6, DRD3, EPAS1, GOPC, HIF1A, HTT, IL1B, MAP1LC3A, MDM2,; also recorded: MDM4, MITF, NFE2L2, NOD1, NOD2, NOD2, RR2E3, OPRD1, OPRK1,; also recorded: OPRM1, PRNP, RIPK2, S1PR1, S1PR4, SIX1, SLC12A5, SMAD3, TACC3,; also recorded: TARDBP, TDP1, TLR9, TNF | – |
| O=C(NCc1cccnc1)/C(=C\c1cccc(Oc2ccccc2)c1)S(=O)(=O)c1ccccc1 [Gr-7A] | 84% | 0 | 0 | 0 | – | YES; | – | 2 | – | – | – | 0.979 | 1.91 | 1.14 | 1.15 | 1.78 | 0.12 | 0 | 2 | – | Assay 21: Potential killing effects on HTB-178 tumor cells ([2]; 10 uM, YES/NO): YES; Toxicity / viability of HTB-178 lung tumor cells ([2]; 10 μM, preliminary data): exerted more pronounced toxicity; also recorded: significantly reduce the viability; Potential killing effects on HTB-178 tumor cells, 2nd ([2]; Assay 1(y), at 10 uM, 2nd): YES.; SOD2 expression, normalized fold change (FOXO3-regulated gene) (FOXO3; 10 μM, 24 hrs, WI-38 cells, qPCR, normalized to B2M, n = 4): SOD2 1.78, fold; Potential FOXO3 Activation (>=2 target genes induced, by >=1.5-fold) (FOXO3; Assay 11(n)): YES; fold induction at 10 µM (FOXO3; [15]): 1.91; fold induction at 10 µM (FOXO3; 24 h, Assay 10(m), at 10 uM, qPCR, read-out: Induction of FOXO3-regulated genes: SOD2 normalized fold-change): 1.78; fold induction at 10 µM (FOXO3; 24 h, Assay 10(m), at 10 uM, qPCR, read-out: Induction of FOXO3-regulated genes: TXNIP normalized fold-change): 0.12; fold induction at 10 µM (FOXO3; [16]): 1.91; fold induction at 10 µM (FOXO3; 10 μM, 24 hrs, WI-38 cells, qPCR, normalized to B2M, n = 4, read-out: TXNIP expression, normalized fold change (FOXO3-regulated gene)): 0.12; fold induction at 10 µM (FOXO3; [17]): 1.91; fold induction at 10 µM (FOXO3; fold change, qPCR, WI-38 cells, 10 μM, 24 hrs, read-out: Summary of effects on FOXO3-regulated genes: TXNIP): 0.12; Summary of effects on FOXO3-regulated genes: SOD2 (FOXO3; fold change, qPCR, WI-38 cells, 10 μM, 24 hrs): SOD2 1.78, |
| O=C(c1ccc([N+](=O)[O-])o1)N1CCc2ccccc21 [O13] | – | 0 | 0 | 0 | 0.69% ± 0.12%, | YES; | significant induction; also recorded: significant, induction | 0 | 1.33 | 1.27 | 1.33 | 1.27 | 1.2 | 1.23 | 1.32 | 1.09 | 0.907 | 0 | 0 | CASP3, DRD2, GMNN, HCRTR1, NR5A1, NR5A2, SENP6, SENP8, SSP1, and TDP1 | fold induction at 10 µM (FOXO3; [15]): 1.2; fold induction at 10 µM (FOXO3; [6]): 1.27; fold induction at 10 µM (FOXO3; [16]): 1.2; fold induction at 10 µM (FOXO3; [10]): 1.33; fold induction at 10 µM (FOXO3; [11]): 1.27; fold induction at 10 µM (FOXO3; [17]): 1.2 |
| CC1C(=O)C(C)C(c2cc(Cl)ccc2O)NC1c1cc(Cl)ccc1O (centres unmarked) [O6] | – | 0 | 0 | 0 | 0.36% ± 0.10%, | YES; | – | 0 | – | – | – | 0.988 | 0.881 | 1.06 | 0.919 | 0.932 | 1.01 | 0 | 0 | ADAM10, ADAM17, ATXN2, GLP1R, IDH1, IL1B, KCNE1, KCNQ1, NTSR1 | – |
